Consider 1 compound from patent US12673052B2, “Combinations for the treatment of cancer” (Exelixis, Inc., priority 2020, dated 2026).

Structures are written as SMILES. pEC50, pIC50, pKi: −log10 of the molar value.

The term pIC50 denotes the IC50 on a negative log10 scale, so that one unit is a factor of ten. One may read the Papp as a coefficient for how fast a substance crosses the barrier. For orientation: pKi means −log10 of the Ki, conventionally taken in molar units. The low end stands for a high Ki, the high end for a low Ki.

The target of one data set is T1, MET (Homo sapiens, UniProt P08581, DEL964-1010).
T1 construct: endogenous in cells; host or cells: Hs 746T gastric carcinoma cells
Description: Endogenous phosphorylated MET in Hs 746T gastric carcinoma cells (MET exon 14 skip-splice mutation). The settings on record: MET (Hs 746T), no ligand; read-out: Cellular IC50. It is filed as cell-based. The method, then:
(§1) The activity of Compound 1 was evaluated in cell-based assays that assessed the mechanistic effects of the compound in tumor and normal cells. Consistent with the biochemical data, Compound 1 is a potent inhibitor of cellular RTKs as assessed by analysis of receptor autophosphorylation as measured by enzyme-linked immunosorbent assay. Assays were performed using cell lines (PC-3, HUVEC, and A-172) stimulated with ligands to their respective receptors to induce autophosphorylation (MET, VEGFR2, and AXL) or a cell line (293A) transfected with an expression vector encoding the receptor of interest (MER). Inhibition of endogenous phosphorylated MET by Compound 1 in Hs 746T gastric carcinoma cells was also investigated due to the presence of the skip-splice mutation of exon 14 in the MET gene. This MET exon 14 alteration leads to increased MET stability and oncogenic activation, including constitutive MET phosphorylation. Also this mutation is known to occur in 3% of lung adenocarcinoma patients and to be sensitive to MET-targeted therapies (Frampton et al 2015).

A further data set relates to SNU-5. Description: Tumor growth inhibition in xenograft model. It is filed as in vivo, CB.17 SCID mice. The method, then: Three human tumor cell lines, NCI-H441, MDA-MB-231, and SNU-5, were selected for use in tumor xenograft studies using athymic nude, NSG and CB.17 SCID mice, respectively. Pharmacodynamic modulation of MET phosphorylation was also measured in the NCI-H441 and SNU-5 xenografts. Tumor-bearing mice were orally dosed once-daily for 14 days (qd×14), and the tumors were resected and processed for MET phosphorylation analysis by Western blot. […]

The nature of data set [1]: Permeability in Caco-2 cells. It is filed as in vitro ADME. The settings on record: human, highly permeable, read-out: apparent permeability coefficient (Papp). Background: Caco-2 cells form a polarised layer with tight junctions and transporters.
In another data set the target is CYP 2B6 (Homo sapiens, UniProt P20813). In words: Cytochrome P450 inhibition in vitro. It is filed as in vitro ADME. The note with it: low CYP inhibition potential. The method, then: (§2) Plasma PK of Compound 1 was characterized in rats and beagle dogs. Toxicokinetic (TK) evaluations of oral Compound 1 were evaluated in repeat-dose studies in rats and dogs. Plasma protein binding was determined in mouse, rat, dog, monkey, and human plasma in vitro. Biotransformation and metabolite profiling of Compound 1 were investigated in vitro using mouse, rat, dog, monkey, and human liver microsomal fractions and hepatocytes and in vivo in rats and dogs. P-glycoprotein (P-gp) and breast cancer resistance protein (BCRP) transporter interaction studies, in vitro experiments evaluating cytochrome P450 (CYP) induction and inhibition by Compound 1, and CYP and glucuronosyltransferase (UGT) substrate specificity studies of Compound 1 were also performed.

In another data set the target is CYP2C19 (Homo sapiens, UniProt P33261). In words: Cytochrome P450 inhibition in vitro. It is filed as in vitro ADME. The method, then: as §2
The target of a further data set is CYP2C8 (Homo sapiens, UniProt P10632). In words: Cytochrome P450 inhibition in vitro. It is filed as in vitro ADME. The method, then: as §2
For a further data set, the target named is CYP3A4 (Homo sapiens, UniProt P08684). Description: Cytochrome P450 inhibition in vitro. It is filed as in vitro ADME. The method, then: as §2
The subject of a further data set is CYP2C9. In words: Cytochrome P450 induction (mRNA levels) in fresh primary human hepatocytes. It is filed as in vitro ADME.
Data set [2] in a line: Hepatocyte stability assay. The note with it: hepatocytes. It is filed as in vitro ADME, dog. The method, then:
(§3) The mean plasma t1/2, z values were approximately 9 hours in rats and 4 hours in dogs. Interspecies scaling based on body weight to predict PK parameters in humans could not be performed because dogs (larger species) cleared Compound 1 faster than rats (smaller species). Therefore, the human PK was projected based on one species (rat). […] This apparent clearance value (CL/F) was used to predict steady-state exposure (AUC and average plasma concentration [Cavg]) in humans for the proposed first-in-human (FIH) starting dose for Study Compound 1-001.
In the liver microsomal stability assay, CLint was 0.601 mL/min/g liver in mouse, 0.563 mL/min/g liver in rat, 0.315 mL/min/g liver in dog, 0.734 mL/min/g liver in monkey, and 0.639 mL/min/g liver in human. In the hepatocyte stability assay, Compound 1 CLint was 0.373 mL/min/g liver in mouse, 0.285 mL/min/g liver in rat, 1.08 mL/min/g liver in dog, 0.533 mL/min/g liver in monkey, and 0.317 mL/min/g liver in human.

The nature of data set [3]: GLP safety pharmacology: neurobehavioral and respiratory. Type of data set: in vivo, rats. The note with it: single oral doses as high as 60 mg/kg; within 24 hours postdose. The method, then: The nonclinical toxicity of Compound 1 was characterized in dose range-finding 7-day and definitive 28-day repeat-dose studies in rats and dogs, and in in vitro bacterial and mammalian genotoxicity bioassays. Compound 1 was also evaluated in definitive neurobehavioral, respiratory and cardiovascular safety pharmacology studies.

Data set [4] can be described thus: Projection of human PK and steady-state exposure based on one species (rat). The method, then: as §3
The steady-state exposure of Compound 1 in humans for the proposed clinical starting dose of 10 mg daily was projected. At this dose, Compound 1 is projected to yield exposures 54-fold lower than those at the highest non-severely toxic dose (HNSTD) in rats (10 mg/kg qd), the highest dose tested in the GLP 4-week toxicity study. […] Compound 1-related findings at the 10 mg/kg/day dose included bile duct inflammation, hyperplasia and individual hepatocyte necrosis (generally minimal-mild) which were fully reversible following 14 days recovery, as were correlative <2-fold aspartate aminotransferase (AST) and <5-fold alanine aminotransferase (ALT) increases.

In another data set the target is MER (Homo sapiens, UniProt Q12866). In words: RTK autophosphorylation ELISA, 293A cells transfected with receptor expression vector. Type of data set: cell-based. More on the design: expressed in transfected cells; host or cells: 293A. The settings on record: no ligand, read-out: Cellular IC50. The method, then:
as §1
Background: In an ELISA, binding on a coated surface is turned into a signal by an enzyme label.

The target of a further data set is AXL (Homo sapiens, UniProt P30530). In words: RTK autophosphorylation ELISA, A-172 cells stimulated with Gas6. The note with it: ligand Gas6, read-out: Cellular IC50. Type of data set: cell-based. More on the design: cell lines (PC-3, HUVEC, and A-172) stimulated with ligands to their respective receptors to induce autophosphorylation (MET, VEGFR2, and AXL); endogenous in cells; host or cells: A-172. The method, then: as §1
AXL, sequence (P30530 26-894): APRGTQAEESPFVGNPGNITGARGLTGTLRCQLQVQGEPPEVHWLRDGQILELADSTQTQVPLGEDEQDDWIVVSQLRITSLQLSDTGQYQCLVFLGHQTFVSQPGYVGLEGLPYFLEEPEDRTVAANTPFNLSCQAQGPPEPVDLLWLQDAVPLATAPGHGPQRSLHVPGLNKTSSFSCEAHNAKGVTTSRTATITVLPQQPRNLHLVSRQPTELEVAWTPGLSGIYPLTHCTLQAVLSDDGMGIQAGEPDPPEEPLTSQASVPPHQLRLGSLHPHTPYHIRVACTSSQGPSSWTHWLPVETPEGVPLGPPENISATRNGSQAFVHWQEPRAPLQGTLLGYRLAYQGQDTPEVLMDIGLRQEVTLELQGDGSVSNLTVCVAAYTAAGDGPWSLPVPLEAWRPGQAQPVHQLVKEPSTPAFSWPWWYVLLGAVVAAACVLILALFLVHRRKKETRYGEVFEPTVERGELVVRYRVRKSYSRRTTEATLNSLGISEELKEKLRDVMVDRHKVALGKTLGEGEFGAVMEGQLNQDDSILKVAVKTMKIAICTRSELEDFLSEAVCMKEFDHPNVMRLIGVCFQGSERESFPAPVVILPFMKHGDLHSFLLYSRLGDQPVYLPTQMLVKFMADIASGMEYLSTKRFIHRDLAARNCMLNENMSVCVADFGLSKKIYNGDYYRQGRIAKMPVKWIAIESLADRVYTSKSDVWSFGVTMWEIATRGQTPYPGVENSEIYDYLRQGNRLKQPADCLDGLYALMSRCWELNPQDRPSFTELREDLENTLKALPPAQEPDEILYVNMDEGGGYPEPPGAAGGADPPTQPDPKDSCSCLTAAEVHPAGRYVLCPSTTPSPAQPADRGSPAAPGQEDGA

CYP3A4, sequence (P08684 whole entry): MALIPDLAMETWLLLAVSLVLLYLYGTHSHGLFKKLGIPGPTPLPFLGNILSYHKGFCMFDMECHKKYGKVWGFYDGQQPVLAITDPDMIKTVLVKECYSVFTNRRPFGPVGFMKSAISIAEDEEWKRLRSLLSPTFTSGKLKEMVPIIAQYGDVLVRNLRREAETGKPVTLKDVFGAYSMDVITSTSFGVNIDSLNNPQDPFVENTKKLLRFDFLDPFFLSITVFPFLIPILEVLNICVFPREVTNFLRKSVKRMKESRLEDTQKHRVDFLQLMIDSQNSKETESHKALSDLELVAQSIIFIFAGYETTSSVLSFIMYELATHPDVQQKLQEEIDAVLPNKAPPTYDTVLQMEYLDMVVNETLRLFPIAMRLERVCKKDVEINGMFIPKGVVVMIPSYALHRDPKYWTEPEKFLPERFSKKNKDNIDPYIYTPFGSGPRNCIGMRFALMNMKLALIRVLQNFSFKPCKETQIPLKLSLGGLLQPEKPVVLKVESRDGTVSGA
CYP 2B6, sequence (P20813 whole entry): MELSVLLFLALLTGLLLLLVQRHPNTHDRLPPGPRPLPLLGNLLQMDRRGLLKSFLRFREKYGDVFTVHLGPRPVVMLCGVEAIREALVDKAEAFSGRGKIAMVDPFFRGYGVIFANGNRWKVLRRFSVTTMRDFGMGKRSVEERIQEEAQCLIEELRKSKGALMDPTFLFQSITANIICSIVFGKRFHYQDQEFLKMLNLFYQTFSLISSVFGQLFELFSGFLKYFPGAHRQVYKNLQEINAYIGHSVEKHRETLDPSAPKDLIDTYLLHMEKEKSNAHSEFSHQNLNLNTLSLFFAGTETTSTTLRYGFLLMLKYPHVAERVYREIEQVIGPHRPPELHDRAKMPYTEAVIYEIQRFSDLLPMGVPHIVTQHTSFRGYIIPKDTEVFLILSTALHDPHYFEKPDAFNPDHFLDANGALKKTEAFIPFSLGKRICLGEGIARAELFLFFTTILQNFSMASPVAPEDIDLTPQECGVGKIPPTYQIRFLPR
T1 sequence (P08581 with tags, fused parts or gaps DEL964-1010 limits assumed): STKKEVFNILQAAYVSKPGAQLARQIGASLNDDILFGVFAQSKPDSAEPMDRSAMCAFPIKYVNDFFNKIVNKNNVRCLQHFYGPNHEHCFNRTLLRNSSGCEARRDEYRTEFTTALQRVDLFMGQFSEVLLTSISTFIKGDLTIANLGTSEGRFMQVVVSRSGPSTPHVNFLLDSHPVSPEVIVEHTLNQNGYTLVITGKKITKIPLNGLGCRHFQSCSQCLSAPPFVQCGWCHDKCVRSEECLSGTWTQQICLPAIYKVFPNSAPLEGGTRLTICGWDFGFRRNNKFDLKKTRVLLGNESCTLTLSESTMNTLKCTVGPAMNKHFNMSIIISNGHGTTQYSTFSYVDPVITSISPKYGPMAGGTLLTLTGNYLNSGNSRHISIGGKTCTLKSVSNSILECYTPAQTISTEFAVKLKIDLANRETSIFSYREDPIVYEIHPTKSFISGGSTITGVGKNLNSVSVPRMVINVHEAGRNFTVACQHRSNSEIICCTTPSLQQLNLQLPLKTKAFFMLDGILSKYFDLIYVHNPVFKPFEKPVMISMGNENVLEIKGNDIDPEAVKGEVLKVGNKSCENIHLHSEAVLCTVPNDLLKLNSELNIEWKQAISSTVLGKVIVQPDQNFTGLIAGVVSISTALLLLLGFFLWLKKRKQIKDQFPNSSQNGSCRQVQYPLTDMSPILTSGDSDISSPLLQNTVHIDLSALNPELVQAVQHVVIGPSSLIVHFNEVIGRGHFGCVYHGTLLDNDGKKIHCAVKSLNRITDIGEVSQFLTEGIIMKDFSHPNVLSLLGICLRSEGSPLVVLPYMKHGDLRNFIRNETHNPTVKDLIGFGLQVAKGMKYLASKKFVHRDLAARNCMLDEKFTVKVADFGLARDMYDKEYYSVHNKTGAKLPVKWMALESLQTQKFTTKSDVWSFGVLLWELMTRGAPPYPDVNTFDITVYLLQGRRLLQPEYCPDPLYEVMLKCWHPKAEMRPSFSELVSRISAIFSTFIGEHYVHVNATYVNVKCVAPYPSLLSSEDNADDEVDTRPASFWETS
T1 sequence (P08581 25-307 partner limits assumed): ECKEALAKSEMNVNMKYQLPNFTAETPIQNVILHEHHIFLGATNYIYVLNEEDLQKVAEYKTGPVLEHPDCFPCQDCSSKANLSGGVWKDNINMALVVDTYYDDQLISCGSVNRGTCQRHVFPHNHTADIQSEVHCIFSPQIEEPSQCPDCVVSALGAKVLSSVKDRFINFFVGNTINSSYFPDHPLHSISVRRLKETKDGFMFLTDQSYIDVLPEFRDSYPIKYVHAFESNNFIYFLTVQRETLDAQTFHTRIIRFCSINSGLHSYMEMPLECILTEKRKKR
MER, sequence (Q12866 21-999): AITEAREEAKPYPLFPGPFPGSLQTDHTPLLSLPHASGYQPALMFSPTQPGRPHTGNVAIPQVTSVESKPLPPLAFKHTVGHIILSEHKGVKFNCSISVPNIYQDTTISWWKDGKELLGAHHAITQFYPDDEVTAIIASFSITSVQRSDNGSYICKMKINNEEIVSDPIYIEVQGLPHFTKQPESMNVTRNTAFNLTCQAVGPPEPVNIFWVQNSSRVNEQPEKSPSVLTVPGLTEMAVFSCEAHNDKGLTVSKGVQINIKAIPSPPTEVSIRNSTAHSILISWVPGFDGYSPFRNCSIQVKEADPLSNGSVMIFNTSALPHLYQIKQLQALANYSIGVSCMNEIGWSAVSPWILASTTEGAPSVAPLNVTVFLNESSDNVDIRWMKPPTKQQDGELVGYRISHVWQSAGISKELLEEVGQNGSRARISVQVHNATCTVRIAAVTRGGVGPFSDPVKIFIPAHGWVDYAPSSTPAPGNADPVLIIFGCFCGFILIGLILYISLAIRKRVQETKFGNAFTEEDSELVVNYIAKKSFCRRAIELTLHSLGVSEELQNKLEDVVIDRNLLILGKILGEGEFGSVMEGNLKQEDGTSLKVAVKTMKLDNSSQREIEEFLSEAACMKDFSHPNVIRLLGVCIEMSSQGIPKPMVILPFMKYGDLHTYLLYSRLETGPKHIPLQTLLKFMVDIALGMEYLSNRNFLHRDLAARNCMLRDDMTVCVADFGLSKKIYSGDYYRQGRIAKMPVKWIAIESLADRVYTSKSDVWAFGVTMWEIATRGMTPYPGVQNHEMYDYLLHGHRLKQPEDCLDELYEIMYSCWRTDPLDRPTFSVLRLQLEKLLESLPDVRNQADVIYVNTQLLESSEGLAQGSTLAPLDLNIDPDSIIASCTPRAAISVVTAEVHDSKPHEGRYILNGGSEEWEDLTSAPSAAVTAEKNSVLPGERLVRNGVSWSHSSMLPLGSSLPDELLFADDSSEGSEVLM
CYP2C19, sequence (P33261 whole entry): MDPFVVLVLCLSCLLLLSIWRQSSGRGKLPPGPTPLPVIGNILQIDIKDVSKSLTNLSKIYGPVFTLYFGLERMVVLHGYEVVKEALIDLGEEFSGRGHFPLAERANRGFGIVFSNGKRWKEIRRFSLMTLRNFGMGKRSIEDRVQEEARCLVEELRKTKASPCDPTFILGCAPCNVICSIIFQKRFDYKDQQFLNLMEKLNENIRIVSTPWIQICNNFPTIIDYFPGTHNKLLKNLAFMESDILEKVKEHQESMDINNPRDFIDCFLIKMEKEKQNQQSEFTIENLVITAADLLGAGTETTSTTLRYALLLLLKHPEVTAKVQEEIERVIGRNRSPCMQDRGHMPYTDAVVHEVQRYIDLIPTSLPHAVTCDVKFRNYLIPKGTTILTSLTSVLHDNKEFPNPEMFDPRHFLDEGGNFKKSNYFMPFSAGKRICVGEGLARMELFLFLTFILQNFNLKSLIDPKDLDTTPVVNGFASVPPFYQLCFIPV

For `CNC(=O)c1cc2c(Oc3ccc(NC(=O)C4(C(=O)Nc5ccc(F)cc5)CC4)cc3)ccnc2cc1OC` [Compound 1, 1-N′-(4-Fluorophenvl)-1-N-[4-[7-methoxy-6-(methylcarbamovl)quinolin-4-yl]oxyphenyl]cyclopropane-1,1-dicarboxamide], the negative logarithm of the IC50 (pIC50) at MET was 7.59; against CYP 2B6, less than 4.48; on MER, 8.15; at AXL, 8.47. Moreover, the “TGI (%)” value in the data set on SNU-5 (3 mg/kg qd × 14 oral, p-value 0.0052) came out at 54.2%; in the data set on SNU-5 (10 mg/kg qd × 14 oral, p-value <0.0001), 94.7%. Further, in data set [1], the Papp turned out to be 3.83 ×10⁻⁶ cm/s. Moreover, the pKi was 5.87 at CYP2C19, 5.90 at CYP2C8 and 4.60 at CYP3A4. Besides, the time-dependent inhibition entry on CYP3A4 (testosterone as probe substrate) was “time-dependent inhibitor”. For the same compound, the pEC50 in the data set with CYP2C9 (human, fresh primary human hepatocytes, mRNA induction, read-out: half-maximal effective concentration (EC50)) is 5.77. Also, the “maximal induction effect (Emax)” value with CYP2C9 (mRNA, 0.1-100 μM) came to 5 fold. In addition, the CLint in data set [2] came out at 1.08 mL/min/g liver. For the same compound, in data set [3], the “neurobehavioral and respiratory system effects” value is on record as “no adverse neurobehavioral effects or toxicologically significant respiratory system effects”. The “projected apparent CL (CL/F) after oral administration in human” value is 0.557 mL/min/kg in data set [4] (assuming rat CL=23.4 mL/hr/kg and F=70%); 2338 mL/h in data set [4] (for a 70-kg human). Further, the “projected human exposure lower than exposure at HNSTD in rats” value in data set [4] (proposed clinical starting dose of 10 mg daily vs 10 mg/kg qd in rats) stood at 54 fold.
